US4783443A, “Amino acyl cephalosporin derivatives” (The University of Chicago, priority 1986, dated 1988)
Values after ≈ are worked out from the molar mass of the structure shown.

What was measured:
[1] = tested on: Escherichia coli JSR-O Cl-Pep^R; test: Minimum inhibitory concentration (MIC); assay type: cell-based
Description: (§1) The antibacterial effects of compounds of the invention have been assessed by determination of the minimum inhibitory concentration (M.I.C.) value against a variety of Gram-negative and -positive bacteria. The microbial susceptibility data for four compounds, together with those for the antibacterial dipeptide beta-Cl-LAla-beta-Cl-LAla, are given in Table I.
(§2) in uM to facilitate a meaningful comparison of the approximate MICs among
(§3) the tested compounds; an appreciation of the MIC values in ug/mL can be
(§4) obtained by multiplying each value (μM) by 0.55
^(g) This ia an E. coli JSRO strain selected for resistance to the
A comparison of the data for E. coli strains JSR-O and JSR-O Cl-Pep^R is of special interest. E. coli Cl-Pep^R is an E. coli JSR-O mutant which was selected for resistance to the dipeptide (f). […] Note that the MIC values for (d) and (e) against E. coli Cl-Pep^R (100 and 50 μM, respectively) are quite similar.

[2] = tested on: Staphylococcus epidermidis (P^R M^R); test: Minimum inhibitory concentration (MIC); assay type: cell-based; conditions: no strain number
Description: as §1, §2, §3, §4
(§5) ^(k) P and M refer to penicillin and methicillin, respectively.

[3] = tested on: Staphylococcus epidermidis MO1554(P^S M^S); test: Minimum inhibitory concentration (MIC); assay type: cell-based; conditions: Staphylococcus epidermidis MO1554 (penicillin- and methicillin-sensitive, P^S M^S)
Description: as §1, §2, §3, §4, §5

[4] = tested on: Staphylococcus epidermidis 1239(P^R M^R); test: Minimum inhibitory concentration (MIC); assay type: cell-based
Description: as §1, §2, §3, §4, §5

[5] = tested on: Escherichia coli CR; test: Minimum inhibitory concentration (MIC); assay type: cell-based
Description: as §1, §2, §3, §4

[6] = tested on: Salmonella typhimurium; test: Minimum inhibitory concentration (MIC); assay type: cell-based; conditions: Gram-negative
Description: as §1, §2, §3, §4

[7] = tested on: Staphylococcus aureus PSL-16 Pen^R; test: Minimum inhibitory concentration (MIC); assay type: cell-based; conditions: possesses a betalactamase
Description: as §1, §2, §3, §4

[8] = tested on: Streptococcus faecalis; test: Minimum inhibitory concentration (MIC); assay type: cell-based
Description: as §1, §2, §3, §4

[9] = tested on: Hemophilus influenzae 238; test: Minimum inhibitory concentration (MIC); assay type: cell-based
Description: as §1, §2, §3, §4

[10] = tested on: Hemophilus influenzae 236; test: Minimum inhibitory concentration (MIC); assay type: cell-based
Description: as §1, §2, §3, §4

[11] = tested on: Psuedomonas aeruginosa; test: Minimum inhibitory concentration (MIC); assay type: cell-based; conditions: Gram-negative
Description: as §1, §2, §3, §4

[12] = tested on: Escherichia coli JSR-O; test: Minimum inhibitory concentration (MIC); assay type: cell-based
Description: as §1, §2, §3, §4

[13] = tested on: Staphylococcus aureus H-2690-8^R; test: Minimum inhibitory concentration (MIC); assay type: cell-based; conditions: possesses a betalactamase
Description: as §1, §2, §3, §4

[14] = tested on: Staphylococcus aureus PSL-13 Pen^R; test: Minimum inhibitory concentration (MIC); assay type: cell-based; conditions: possesses a betalactamase
Description: as §1, §2, §3, §4

[15] = tested on: Klebsiella pneumoniae; test: Minimum inhibitory concentration (MIC); assay type: cell-based; conditions: Gram-negative
Description: as §1, §2, §3, §4

[16] = tested on: Shigella flexneri; test: Minimum inhibitory concentration (MIC); assay type: cell-based; conditions: Gram-negative
Description: as §1, §2, §3, §4

[17] = tested on: Salmonella typhimurium LT 2; test: Minimum inhibitory concentration (MIC); assay type: cell-based; conditions: Gram-negative
Description: as §1, §2, §3, §4

[18] = tested on: Enterobacter cloacae; test: Minimum inhibitory concentration (MIC); assay type: cell-based
Description: as §1, §2, §3, §4

[19] = tested on: Streptococcus agalactiae; test: Minimum inhibitory concentration (MIC); assay type: cell-based; conditions: Gram positive
Description: as §1, §2, §3, §4

[20] = tested on: Hemophilus influenzae 487; test: Minimum inhibitory concentration (MIC); assay type: cell-based; conditions: possesses a betalactamase
Description: as §1, §2, §3, §4

[21] = tested on: Staphylococcus aureus T-4624-8 Pen^R; test: Minimum inhibitory concentration (MIC); assay type: cell-based; conditions: possesses a betalactamase
Description: as §1, §2, §3, §4

[22] = tested on: Morganella morganii; test: Minimum inhibitory concentration (MIC); assay type: cell-based; conditions: Gram-negative
Description: as §1, §2, §3, §4

[23] = tested on: Staphylococcus aureus PSL-15 Pen^R; test: Minimum inhibitory concentration (MIC); assay type: cell-based; conditions: possesses a betalactamase
Description: as §1, §2, §3, §4

[24] = tested on: Serratia marcescens; test: Minimum inhibitory concentration (MIC); assay type: cell-based; conditions: Gram-negative
Description: as §1, §2, §3, §4

[25] = tested on: Escherichia coli DB4548; test: Minimum inhibitory concentration (MIC); assay type: cell-based
Description: as §1, §2, §3, §4

[26] = tested on: Staphylococcus aureus PSL-14 Pen^R; test: Minimum inhibitory concentration (MIC); assay type: cell-based; conditions: possesses a betalactamase
Description: as §1, §2, §3, §4

[27] = tested on: Enterobacter areogenes; test: Minimum inhibitory concentration (MIC); assay type: cell-based; conditions: Gram-negative
Description: as §1, §2, §3, §4

[28] = tested on: Escherichia coli JSR-O pBR322; test: Minimum inhibitory concentration (MIC); assay type: cell-based; conditions: read-out: Minimum Inhibitory Concentration
Description: as §1, §2, §3, §4
^(i) Contains the plasmid gene encoding the TEM betalactamase.

[29] = tested on: Gram-negative and -positive bacteria; test: Antibacterial activity, general trends of the MIC panel of Table I; assay type: cell-based; conditions: for insensitivity / resistance: P. aeruginosa, S. marcescens and K. pneumoniae
Description: as §1

[30] = target: E. coli TEM beta-lactamase (Escherichia coli, UniProt P62593); test: Kinetics of enzymatic turnover by E. coli TEM beta-lactamase; assay type: biochemical
Experimental: Escherichi coli TEM beta-lactamase was purchased from Applied Microbiology and Research, Porton Down, U.K. L-Alanyl-L-alanine was purchase from Sigma; N-BOC-LAla-LAla and N-BOC-beta-Cl-LAla-beta-Cl-LAla were prepared as described previously. Cheung et al supra. All other reagents were of the best grade commercially available.
Kinetic Constants for the Reactions of E. coli TEM beta-Lactamase with Cephalothin and the Cephalosporin Peptide Esters 7 and 17.

[31] = tested on: Escherichia coli Ceph^R; test: Minimum inhibitory concentration (MIC); assay type: cell-based
Description: as §1, §2, §3, §4
(§6) ^(j) Resistant to cephalothin (MIC >200 uM);

[32] = tested on: Corynebacterium JKR-2285; test: Minimum inhibitory concentration (MIC); assay type: cell-based; conditions: Corynebacterium JKR-2285, resistant to cephalothin
Description: as §1, §2, §3, §4, §6

[33] = tested on: Corynebacterium JKM-4754; test: Minimum inhibitory concentration (MIC); assay type: cell-based; conditions: Corynebacterium JKM-4754, resistant to cephalothin
Description: as §1, §2, §3, §4, §6

[34] = tested on: Gram-negative and -positive bacteria; conditions: Cheung et al., 1983; cited from earlier work
[35] = Escherichia coli, read-out: Minimum Inhibitory Concentration
[36] = S. aureus strains, Corynebacterium JK strains, S. faecalis, H. influenzae 487, E. coli JSR-O and E. cloacae

Chain of E. coli TEM beta-lactamase (P62593 24-286 limits assumed): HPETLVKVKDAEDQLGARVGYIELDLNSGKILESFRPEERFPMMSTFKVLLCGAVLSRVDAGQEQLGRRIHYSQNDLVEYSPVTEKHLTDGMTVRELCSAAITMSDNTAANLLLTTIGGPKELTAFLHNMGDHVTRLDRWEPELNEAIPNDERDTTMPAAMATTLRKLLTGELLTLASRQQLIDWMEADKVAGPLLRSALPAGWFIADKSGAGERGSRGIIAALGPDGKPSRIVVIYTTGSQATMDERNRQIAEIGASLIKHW

N[C@@H](CCl)C(=O)N[C@@H](CCl)C(=O)OCC1=C(C(=O)O)N2C(=O)[C@@H](NC(=O)Cc3cccs3)[C@H]2SC1 [(e), 7-beta-(2-thienylacetamido)-3-(beta-chloro-L-alanyl-beta-chloro-L-alanyloxymethyl)-3-cephem-4-carboxylate]
MIC [1, 35]: 50 µM (≈ 28.3 µg/mL) | MIC [2]: ≤ 0.78 µM | MIC [3]: ≤ 0.78 µM | MIC [4]: ≤ 0.78 µM | MIC [5, 35]: 12.5 µM (≈ 7.07 µg/mL) | MIC ([6]; Salmonella enterica): 50 µM (≈ 28.3 µg/mL) | MIC [7]: 1.56 µM (≈ 0.882 µg/mL) | MIC ([8]; Enterococcus faecalis, read-out: Minimum Inhibitory Concentration): 12.5 µM (≈ 7.07 µg/mL) | MIC ([9]; Haemophilus influenzae): ≤ 0.78 µM | MIC ([10]; Haemophilus influenzae): 25 µM (≈ 14.1 µg/mL) | MIC [11]: > 200 µM | MIC [12, 35]: 12.5 µM (≈ 7.07 µg/mL) | MIC [13]: ≤ 0.78 µM | MIC [14]: ≤ 0.78 µM | MIC [15]: > 200 µM | MIC [16]: 50 µM (≈ 28.3 µg/mL) | MIC ([17]; Salmonella enterica): 25 µM (≈ 14.1 µg/mL) | MIC ([18]; read-out: Minimum Inhibitory Concentration): 12.5 µM (≈ 7.07 µg/mL) | MIC [19]: ≤ 0.78 µM | MIC ([20]; Haemophilus influenzae): 3.12 µM (≈ 1.76 µg/mL) | MIC [21]: ≤ 0.78 µM | MIC [22]: 50 µM (≈ 28.3 µg/mL) | MIC [23]: 1.56 µM (≈ 0.882 µg/mL) | MIC [24]: > 200 µM | MIC [25]: 6.25 µM (≈ 3.53 µg/mL) | MIC [26]: 1.56 µM (≈ 0.882 µg/mL) | MIC [27]: 200 µM (≈ 113 µg/mL) | MIC [28]: 6.25 µM (≈ 3.53 µg/mL) | detectable activity among the cephalosporins ([29]; E. cloacae, all of the susceptible E. coli strains, Corynebacterium strains, S. faecalis): the only cephalosporin with detectable activity | sensitivity observed ([29]; E. cloacae, all of the susceptible E. coli strains, H. influenzae 487, all of the S. aureus strains): sensitivity was observed | insensitivity / resistance [29]: resistant | sensitivity [29, 36]: sensitive | antimicrobial potency compared with the other cephalosporins ([29]; Table I, all strains): by-and-large a more potent antimicrobial agent than the other three cephalosporins (b), (c) and (d) | antibiotic potency of (e) versus amino acid ester (c) ([29]; strains sensitive to both (c) and (e)): invariably more potent an antibiotic than is the amino acid ester (c) | Vmax compared with cephalothin [30]: substantially greater than that obtained for cephalothin | substrate for the lactamase [30]: found to be substrates for the E. coli TEM beta-lactamase | binding to the lactamase (KM approximating KS) ([30]; effect of the C10-dipeptidyl substituent): do not compromise the binding of the cephalosporin nucleus to the lactamase | MIC [31, 35]: 12.5 µM (≈ 7.07 µg/mL) | MIC ([32]; JKR2285, read-out: Minimum Inhibitory Concentration): 3.12 µM (≈ 1.76 µg/mL) | MIC ([33]; JKM4754, read-out: Minimum Inhibitory Concentration): 3.12 µM (≈ 1.76 µg/mL)

Betachloro-L-Ala-beta-chloro-L-Ala [(f), reference compound]
Minimum Inhibitory Concentration ([1]; Escherichia coli JSR-O Cl-Pep^R, selected for resistance to the peptide (f)): > 200 µM | Minimum Inhibitory Concentration [2]: ≤ 0.78 µM | Minimum Inhibitory Concentration [3]: ≤ 0.78 µM | Minimum Inhibitory Concentration [4]: ≤ 0.78 µM | Minimum Inhibitory Concentration ([5]; Escherichia coli CR): 12.5 µM | Minimum Inhibitory Concentration [6]: 200 µM | Minimum Inhibitory Concentration [7]: 12.5 µM | Minimum Inhibitory Concentration ([8]; Streptococcus faecalis, Gram positive): 6.25 µM | Minimum Inhibitory Concentration [9]: 12.5 µM | Minimum Inhibitory Concentration [10]: > 200 µM | Minimum Inhibitory Concentration [11]: > 200 µM | Minimum Inhibitory Concentration ([12]; Escherichia coli JSR-O, parental strain): 12.5 µM | Minimum Inhibitory Concentration [13]: 1.56 µM | Minimum Inhibitory Concentration [14]: 1.56 µM | Minimum Inhibitory Concentration [15]: > 200 µM | Minimum Inhibitory Concentration [16]: 200 µM | Minimum Inhibitory Concentration [17]: 200 µM | Minimum Inhibitory Concentration ([18]; Gram-negative): 12.5 µM | Minimum Inhibitory Concentration [19]: ≤ 0.78 µM | Minimum Inhibitory Concentration [20]: ≤ 0.78 µM | Minimum Inhibitory Concentration [21]: 1.56 µM | Minimum Inhibitory Concentration [22]: 200 µM | Minimum Inhibitory Concentration [23]: 12.5 µM | Minimum Inhibitory Concentration [24]: > 200 µM | Minimum Inhibitory Concentration [26]: 12.5 µM | Minimum Inhibitory Concentration [27]: 25 µM | antibacterial potency of dipeptide versus beta-Cl-LAla [34]: consistently and dramatically more potent an antibacterial agent than is beta-Cl-LAla alone | insensitivity / resistance [29]: inherently insensitive | sensitivity [29, 36]: sensitive | sensitivity ([29]; S. epidermidis 1239 P^R M^R and M-1554 P^S M^S): exquisitely sensitive | Minimum Inhibitory Concentration ([31]; Escherichia coli Ceph^R, resistant to cephalothin): 3.12 µM | Minimum Inhibitory Concentration [32]: 0.78 µM | Minimum Inhibitory Concentration [33]: 0.78 µM
